{
  "source": "patent US20200345746A1",
  "about": "“Oxazine Derivative for Use in the Prevention of Alzheimer's Disease in at Risk Patents” (Novartis AG, priority 2016, published 2020)",
  "key": {"amyloid plaques": {"tested_on": "amyloid plaques", "test": "Plaque histology in APP23 mice (plaque numbers and plaque area)", "type": "in vivo, mouse", "conditions": "for Number of large plaques / Number of medium plaques / Number of small plaques: normalized to total area (1000000 * mean ± SEM)", "description": "Amyloid plaques were stained using a rabbit anti-Aβ primary antibody which recognizes the C-terminal part of the amyloid peptide (the antibody was raised as described in Schrader-Fischer G, Paganetti P A, 1996; Schrader-Fischer G et al., 1997). Activated astrocytes were detected using a commercial rabbit anti-GFAP (reference Z0334 from Dako Schweiz GmbH, Baar, Switzerland).\nAll stainings were performed using the fully automated instrument Ventana Discovery® Ultra (Roche Diagnostics Schweiz AG, Rotkreuz, Switzerland). All chemicals were provided by Roche Diagnostic.\nAll study animals were used and brain tissue sections of 3 micrometers were freshly cut and collected on SuperFrost+ slides. The tissues sections were de-paraffinized and rehydrated under solvent-free conditions (EZprep solution) followed by antigen retrieval (demasking) performed by heat retrieval cycles for 32 min in an EDTA based buffer (CC1 solution). Subsequently, slides were blocked for 4 min using the DISCOVERY Inhibitor (reference 07017944001 (Roche)). The primary antibody diluted at 1/20,000 in antibody diluent was manually added on tissue sections and incubated for 1h at room temperature. A short post-fixation (glutaraldehyde at 0.05%) was performed before applying the multimer UltraMap-anti Rabbit HRP ready to use antibody (reference 05269717001) for 16 min.\nDetection was performed using the DISCOVERY FITC® following the manufacturer's recommendations. Slides were then heat denaturated at 92° C. for 20 min before a manual application of the second primary antibody (anti-GFAP diluted at 1/2,000) and incubated for 1 h. UltraMap-anti-Rabbit HRP antibody was used again for 20 min to detect GFAP in combination with the DISCOVERY Rhodamine kit (reference 07259883001).\nThe slides were washed and mounted using Prolong® Gold antifade reagent (reference P36931, ThermoFisher, Switzerland) and further scanned with the Hamamatsu slide scanner instrument (NanoZoomer 2.0 HT, scanning software NDP-Scan Vers. 2.5, Hamamatsu Photonics France, Swiss Office, Solothurn, Switzerland) at the 40× objective. The scanning settings were as follows: the exposure time with the DAPI filter was set at 57 ms as well as for the FITC filter. The exposure time for the TRITC filter (detection of Rhodamine) was set at 14.2 ms.\nFor the quantitative plaque evaluation based on image analysis, a proprietary image analysis platform (ASTORIA, Automated Stored Image Analysis) was developed based on MS Visual Studio 2010 and many functions from Matrox MIL V9 libraries (Matrox Inc, Quebec, Canada).\nFor the beta-amyloid plaque and neuroinflammation analysis, the following sequence of steps was performed: • Slides were scanned with Hamamatsu Nanozoomer at 40× magnification. For each fluorescence labelling (DAPI, FITC and TRITC), a separate image was created • Manually outline ROIs (regions of interest) for defining cortex in brain sections for Aβ plaque assessment on the green FITC channel image, then use the resulting outline also for the other two channel images (copy resulting xml files) • Run the in-house developed ImageScope (V12.1.0.5029, Aperio Inc., USA) plug-in for creation and export of *.tif image tiles (at 10× magnification) for each of the 3 fluorescence channels\nImage Batch Processing: • Obtain the combined true color image (DAPI, FITC, TRITC) for each section through accessing each individual fluorescence channel image • Segmentation of valid sample (within outlined ROI) from black unstained background • Apply adaptive thresholding technique for segmentation of objects in green channel image […]"}, "[1]": {"test": "First-in-human study: safety and tolerability", "type": "in vivo", "conditions": "healthy elderly subjects", "excerpt": "The purpose of this study was to determine the single and multiple maximum tolerated dose of Compound 1 and to assess the pharmacokinetic/pharmacodynamic (PK/PD) relationship using Aβ in CSF as primary PD biomarker."}},
  "data": [
    {"compound": "C[C@@]1(c2nc(NC(=O)c3ncc(C(F)(F)F)cc3Cl)ccc2F)CO[C@@](C)(C(F)(F)F)C(N)=N1", "note": "[Compound 1, N-(6-((3R,6R)-5-amino-3,6-dimethyl-6-(trifluoromethyl)-3,6-dihydro-2H-1,4-oxazin-3-yl)-5-fluoropyridin-2-yl)-3-chloro-5-(trifluoromethyl)picolinamide]", "values": [
      {"measurement": "Number of large plaques", "setting": "amyloid plaques; APP23, 0.03 g/kg food", "result": "0.09 ± 0.02"},
      {"measurement": "Number of medium plaques", "setting": "amyloid plaques; APP23, 0.03 g/kg food", "result": "1.06 ± 0.14"},
      {"measurement": "Number of small plaques", "setting": "amyloid plaques; APP23, 0.03 g/kg food", "result": "10.06 ± 1.55"},
      {"measurement": "Number of large plaques, change vs vehicle", "setting": "amyloid plaques; APP23, 0.03 g/kg vs vehicle", "result": "−29.9", "unit": "%"},
      {"measurement": "Number of medium plaques, change vs vehicle", "setting": "amyloid plaques; APP23, 0.03 g/kg vs vehicle", "result": "−22.9", "unit": "%"},
      {"measurement": "Number of small plaques, change vs vehicle", "setting": "amyloid plaques; APP23, 0.03 g/kg vs vehicle", "result": "−30.3", "unit": "%"},
      {"measurement": "Total plaque area, change vs vehicle", "setting": "amyloid plaques; APP23, 0.03 g/kg vs vehicle", "result": "−26.4", "unit": "%"},
      {"measurement": "Number of large plaques", "setting": "amyloid plaques; APP23, 0.3 g/kg food", "result": "0.04 ± 0.01"},
      {"measurement": "Number of medium plaques", "setting": "amyloid plaques; APP23, 0.3 g/kg food", "result": "0.58 ± 0.10"},
      {"measurement": "Number of small plaques", "setting": "amyloid plaques; APP23, 0.3 g/kg food", "result": "5.78 ± 0.75"},
      {"measurement": "Number of large plaques, change vs vehicle", "setting": "amyloid plaques; APP23, 0.3 g/kg vs vehicle", "result": "−68.2", "unit": "%"},
      {"measurement": "Number of medium plaques, change vs vehicle", "setting": "amyloid plaques; APP23, 0.3 g/kg vs vehicle", "result": "−57.9", "unit": "%"},
      {"measurement": "Number of small plaques, change vs vehicle", "setting": "amyloid plaques; APP23, 0.3 g/kg vs vehicle", "result": "−60.0", "unit": "%"},
      {"measurement": "Total plaque area, change vs vehicle", "setting": "amyloid plaques; APP23, 0.3 g/kg vs vehicle", "result": "−59.5", "unit": "%"},
      {"measurement": "reduction of plaque load (immunohistochemistry)", "setting": "amyloid plaques; APP23, high dose group", "result": "~70", "unit": "%"},
      {"measurement": "reduction of the increase in plaques and total plaque area", "setting": "amyloid plaques; APP23, high dose treatment group", "result": "about 60%"},
      {"measurement": "reduction of plaque load (immunohistochemistry)", "setting": "amyloid plaques; APP23, low dose group", "result": "~20", "unit": "%"},
      {"measurement": "reduction of the increase in plaques and total plaque area", "setting": "amyloid plaques; APP23, low dose treatment group", "result": "about 25%"},
      {"measurement": "safety and tolerability", "setting": "[1]; 300 mg QD over two weeks (highest tested)", "result": "safe and tolerated"},
      {"measurement": "safety and tolerability", "setting": "[1]; 750 mg single dose (highest tested)", "result": "safe and tolerated"}
    ]}
  ]
}
